In brackets after ≈: the same amount, converted by molar mass. Read-outs that look alike come from different tables or passages of the source.
Assays:
[1] = tested on: E. coli K-12 strain SH3210; assay: Anucleate cell blue assay; type: cell-based
Method: Anucleate cell blue assay. The anucleate cell blue assay was carried out as reported previously. Briefly, E. coli K-12 strain SH3210 (ΔtrpE5 his λ pXX747) was grown in a P medium containing 1% Polypepton and 0.5% NaCl (pH 7). Paper disks (φ 8 mm) each soaked with 20 μl of a sample solution were placed on P medium agar plates (1.5% agar) containing 10^4 cells/ml of SH3210 and 40 μg/ml of 5-bromo-4-chloro-3-indolyl β-D-galactoside. The plates were incubated at 42° C. for 24 h, and the development of a blue color and the growth inhibitory zone around the paper disks were evaluated.
Since 1 had originally been found through screening by an anucleate cell blue assay, the effect of each compound was first examined by this assay.

[2] = tested on: E. coli MG1655; assay: Determination of minimum inhibitory concentration (MIC); type: cell-based; details: for MIC: Escherichia coli; for MIC E. coli: Example 2
Method: (§1) Determination of minimum inhibitory concentration (MIC). MICs were also determined on Mueller Hinton agar plates (0.2% beef extract, 1.75% acid digest of casein, 0.15% soluble starch, 1.5% agar, pH 7.3).
(§2) Determination of MIC Minimal inhibitory concentrations (MICs) were determined using a standard 2-fold serial dilution format on L agar plates. Ten microliters of stationary culture diluted in 0.85% NaCl to 10^6 cells/ml were spotted on per plate. […] MICs were also determined on Mueller Hinton agar plates (0.2% beef extract, 1.75% acid digest of casein, 0.15% soluble starch, 1.5% agar, pH 7.3).

[3] = tested on: P. putida NBRC14164; assay: as above; type: cell-based, Pseudomonas putida; details: for MIC P. putida: Example 2; for MIC: Pseudomonas putida
Method: as §1, §2

[4] = tested on: S. typhimurium NBRC13245; assay: as above; type: cell-based, Salmonella typhimurium; details: for MIC: Salmonella enterica, read-out: MIC S. typhimurium
Method: as §1, §2

[5] = tested on: B. subtilis 168; assay: as above; type: cell-based, Bacillus subtilis; details: for MIC B. subtilis: Example 2
Method: as §1, §2

[6] = tested on: S. aureus subsp. aureus NBRC15035; assay: as above; type: cell-based, Staphylococcus aureus; details: for MIC S. aureus: Example 2; for MIC: Staphylococcus aureus
Method: as §1, §2

[7] = tested on: E. coli MG1655; assay: Microscopic observation of cell shape; type: cell-based; details: for Effect on E. coli cell morphology (in words): 3×MIC or 300 μg/ml, 16 hrs
Method: Microscopic observation. E. coli K-12 strain MG1655 (F^− λ^−) was grown in Lennox broth containing 1% Polypepton, 0.5% yeast extract, 0.5% NaCl, and 0.1% glucose (pH 7.2). Cells spread on a slide glass were treated with methanol for 5 min and covered with poly-L-lysine. The fixed cells were observed by the differential interference contrast system through an Axioskop 2 microscope (Carl Zeiss Co., Ltd., Oberkochen, Germany). To observe the anucleate cells, cells were stained with a 4′,6-diamidino-2-phenylindole (DAPI) solution (5 μg/ml in saline) and then observed by the fluorescence phase-contrast combined method.
The effect of each compound on E. coli cell morphology was next examined.

[8] = NBRC14164, read-out: MIC P. putida
[9] = Example 2, methods as in Example 1
[10] = Bacillus subtilis, 168, read-out: MIC B. subtilis
[11] = NBRC15035, read-out: MIC S. aureus
[12] = E. coli MG1655 treated at 300 μg/ml (**), 30° C., 16 h
[13] = MG1655, Example 2, methods as in Example 1, read-out: MIC E. coli
[14] = MG1655, Table 1, E. coli MG1655, read-out: MIC E. coli
[15] = NBRC14164, Example 2, methods as in Example 1, read-out: MIC P. putida
[16] = NBRC14164, Table 1, NBRC14164, read-out: MIC P. putida
[17] = Bacillus subtilis, 168, Example 2, methods as in Example 1, read-out: MIC B. subtilis
[18] = Bacillus subtilis, 168, Table 1, B. subtilis 168, read-out: MIC B. subtilis
[19] = NBRC15035, Example 2, methods as in Example 1, read-out: MIC S. aureus
[20] = NBRC15035, Table 1, NBRC15035, read-out: MIC S. aureus
[21] = E. coli MG1655 treated at 3×MIC (*), 30° C., 16 h

Compound | Growth inhibitory zone and blue zone in the anucleate cell blue assay (in words) [1] | MIC ([2]; MG1655, read-out: MIC E. coli) [µg/mL] | MIC E. coli ([2]; methods as in Example 1) [µg/mL] | MIC P. putida ([3]; methods as in Example 1) [µg/mL] | MIC [3, 8] [µg/mL] | MIC S. typhimurium [4, 9] [µg/mL] | MIC [4] [µg/mL] | MIC [5, 10] [µg/mL] | MIC B. subtilis ([5]; methods as in Example 1) [µg/mL] | MIC S. aureus ([6]; methods as in Example 1) [µg/mL] | MIC [6, 11] [µg/mL] | Shape [7, 12] | Shape [7, 9] | MIC [2, 13] [µg/mL] | MIC [2, 14] [µg/mL] | MIC [3, 15] [µg/mL] | MIC [3, 16] [µg/mL] | MIC [4, 9] [µg/mL] | MIC [5, 17] [µg/mL] | MIC [6, 19] [µg/mL] | further results
CCSC(=N)N [Compound 6, S-ethylisothiourea] | neither a growth inhibitory zone nor blue zone | > 100 | >100 | >100 | > 100 | >100 | > 100 | > 100 | >100 | >100 | > 100 | Rod** | Rod | – | – | – | – | – | – | – | –
N=C(N)SCC1CCCCC1 [Compound 4] | neither a growth inhibitory zone nor blue zone | – | – | – | – | – | – | – | – | – | – | Rod** | Short Rod | > 200 | > 100 | > 200 | > 100 | > 200 | > 200 | > 200 | MIC ([4]; Table 1, NBRC13245): > 100 µg/mL; MIC [5, 18]: > 100 µg/mL; MIC [6, 20]: > 100 µg/mL; Effect on E. coli cell morphology (in words) ([7]; 30° C.): shorter than corresponding untreated cells, but spherical cells were not induced
N#CSCc1ccccc1 [Compound 7, S-benzylithiocyanate, reference compound] | neither a growth inhibitory zone nor blue zone | > 100 | >100 | >100 | > 100 | >100 | > 100 | > 100 | >100 | >100 | > 100 | – | Rod | – | – | – | – | – | – | – | Shape [7, 21]: Rod*
NC(=S)Nc1ccccc1 [Compound 10, N-phenylthiourea, reference compound] | neither a growth inhibition nor blue zone | > 100 | >100 | >100 | > 100 | >100 | > 100 | > 100 | >100 | >100 | > 100 | Rod** | Rod | – | – | – | – | – | – | – | –
N=C(N)SCc1ccccc1 [Compound 3, S-benzylisothiourea] | blue zone just around the paper disk, but only a marginal growth inhibitory zone was detected | – | – | – | – | – | – | – | – | – | – | – | Sphere | 100 (≈ 602 µM) | 100 (≈ 602 µM) | > 100 | > 100 | > 100 | > 100 | > 100 | MIC ([4]; Table 1, NBRC13245): > 100 µg/mL; MIC [5, 18]: > 100 µg/mL; MIC [6, 20]: > 100 µg/mL; Effect on E. coli cell morphology (in words) ([7]; 30° C.): induced a spherical cell shape; Shape [7, 21]: Sphere*
N=C(N)SCc1ccc(Cl)cc1 [Compound 2, S-(4-chlorobenzyl)isothiourea] | deep blue zone around a growth inhibitory zone almost comparable to those of 1 | – | – | – | – | – | – | – | – | – | – | – | Sphere | 3.13 (≈ 15.6 µM) | 3.13 (≈ 15.6 µM) | > 100 | > 100 | 3.13 (≈ 15.6 µM) | > 100 | > 100 | MIC ([4]; Table 1, NBRC13245): 3.13 µg/mL (≈ 15.6 µM); MIC [5, 18]: > 100 µg/mL; MIC [6, 20]: > 100 µg/mL; Effect on E. coli cell morphology (in words) ([7]; 30° C.): induced a spherical cell shape; Shape [7, 21]: Sphere*
CCCCCCCSC(=N)N [Compound 5, S-heptylisothiourea] | a growth inhibitory zone as well as a blue zone | – | – | – | – | – | – | – | – | – | – | Rod** | Rod | 200 (≈ 1150 µM) | > 100 | 200 (≈ 1150 µM) | > 100 | > 200 | > 200 | > 200 | MIC ([4]; Table 1, NBRC13245): > 100 µg/mL; MIC [5, 18]: > 100 µg/mL; MIC [6, 20]: > 100 µg/mL; Effect on E. coli cell morphology (in words) ([7]; 30° C.): somewhat elongated cells, but not spherical cells
O=C=NCc1ccccc1 [Compound 9, benzylisocyanate, reference compound] | neither a growth inhibitory zone nor blue zone | > 100 | >100 | >100 | > 100 | >100 | > 100 | > 100 | >100 | >100 | > 100 | Rod** | Rod | – | – | – | – | – | – | – | –
N=C(N)SCc1c(F)cccc1F [2,6-F] | – | – | – | – | – | – | – | – | – | – | – | – | Sphere | 50 (≈ 247 µM) | – | > 100 | – | 50 (≈ 247 µM) | > 100 | > 100 | –
N=C(N)SCc1cc(F)c(Cl)cc1Cl [2,4-Cl 5-F, S-(2,4-Dichloro, and 5-fluoro-benzyl)-isothiourea] | – | – | – | – | – | – | – | – | – | – | – | – | Sphere | 0.78 (≈ 3.08 µM) | – | > 100 | – | 12.5 (≈ 49.4 µM) | 12.5 (≈ 49.4 µM) | > 100 | –
N=C(N)SCc1ccc(Br)cc1 [Compound 4-Br, S-(4-Bromo-benzyl)-isothiourea] | – | – | – | – | – | – | – | – | – | – | – | – | Sphere | 3.13 (≈ 12.8 µM) | – | > 100 | – | 6.25 (≈ 25.5 µM) | > 100 | > 100 | –
